{"source": "patent US20170015555A1", "about": "“LONG-TERM PRESERVATION AND NOVEL APPLICATION OF CHLOROUS ACID AQUEOUS SOLUTION FORMULATION” (priority 2013, published 2017)", "key": {"[1]": {"assay": "Deodorizing effect (chemical deodorization, gas detector tube)", "conditions": "400 ppm, spray 20 cc", "description": "In order to evaluate tests on deodorizing effects, the present Example examined deodorizing effects by using standards regarding air freshening and deodorization ([II]-2 Method of Testing Deodorizing Efficacy (Chemical Deodorization)) set forth by the Air Fresheners and Deodorizers Conference (http://www.houkou.gr.jp/) as the efficacy testing method, which is adopted by Japan Food Research Laboratories.\nAmmonium odor: Ammonium Standard Solution II (Wako Pure Chemical Industries, for testing malodorous substances) Amine odor: methyl mercaptan standard solution (Wako Pure Chemical Industries, for testing malodorous substances) Sulfur odor: hydrogen sulfide (self-made, used hydrogen sulfide that was generated by adding sulfuric acid to zinc sulfide)\nGas detector tube made by GASTEC Corporation Ammonium odor: Detector tube ammonium 3 L made by GASTEC Corporation Amino odor: Detector tube methyl mercaptan 71 made by GASTEC Corporation Sulfur odor: Detector tube hydrogen sulfide 4 LL made by GASTEC Corporation\nTests were conducted in compliance with ([II]-2 Method of Testing Deodorizing Efficacy (Chemical Deodorization)) set forth by the Air Fresheners and Deodorizers Conference.\nThe tests were carried out by static culture method, using a commercially-available airbag with a spigot having a volume of about 10 L as test containers. The volume of airbags was appropriately changed in accordance with the size of the product.\nThe bags were filled with odorless air. Malodor concentrations were measured over time at room temperature (about 20° C.). (3 points or higher, detection tube method (FIG. 16), measured by an instrument analysis method or olfactory measurement method. When decrease in the blank was observed, the decrease was suitably corrected. When measuring by olfactory measuring method, the airbag spigot was opened for direct sniffing, or gas was transferred to an odor bag while wearing a mask to perform olfactory measurement in an autonomic respiration form. Measured air was not returned to the source).\nFor ammonium odor, the residual concentrations were detected and recorded for control (no specimen), 20 ml (cc) of distilled water, sodium hypochlorite (expressed as Na hypochlorite, 400 ppm), and chlorous acid aqueous solution (expressed as CAAS, 400 ppm) prior to spraying and 0 hour, 3 hours, 6 hours, 9 hours, and 24 hours after spraying.\nIt is known that an odorous substance adsorbs to an airbag and naturally decreases when the odorous substance is in the airbag. In this regard, the amount of loss due to such a natural decrease was measured to normalize the observed values in a control segment.\nFor the values, the values of the raw data were recorded. The concentration prior to spraying was adjusted and the controls were normalized to be 100. The results are shown in the following Table (In the Table, Cont indicates controls and h indicates time)."}, "[2]": {"system": "Microbes of the genus Salmonella: Salmonella Enteritidis IF03313", "type": "cell-based", "conditions": "stored at 25° C. Day 0; 1000 ppm available chlorine", "description": "(§1) 1) Chlorous acid aqueous solution formulation (see Example 1: Table 11) Treatment sheet (material: 100% cotton): (about 27×40 cm) *Impregnated at a ratio of weight of treatment sheet (g): amount of liquid (ml)=1:3 2) Imitation vomit Miso solution: adjusted to pH of 2 with hydrochloric acid 3) Test Microbes that were Used E. coli: Escherichia coli IF03927 Staphylococcus aureus: Staphylococcus aureus IF0 12732 Thermoduric Microbes (Bacillus cereus): Bacillus cereus NBRC15305 Microbes of the genus Salmonella: Salmonella Enteritidis IF03313 Enterohemorrhagic Escherichia coli O157: Escherichia coli O157 Enterohemorrhagic Escherichia coli O111: Escherichia coli O111 Enterohemorrhagic Escherichia coli O26: Escherichia coli O26\n(1) Imitation vomit was spread in an area about the size of an A4 sheet. (2) 5 dry sheets were laid thereon. (3) An agent solution was poured on the dry sheets to wipe off the imitation vomit. (4) A cotton swab was soaked with sterile saline. A portion where imitation vomit was spread was scrubbed with the cotton swab to collect microbes remaining on the floor. After suspending in saline, the solution was spread on a petri dish and cultured. The number of each of the microbes was measured. (5) Test operations 3 and 4 were repeated a total of 7 times (repeated until the imitation vomit could be removed completely)."}, "pathogenic microbes": {"system": "pathogenic microbes", "assay": "Sterilizing effect on floor surface when treating vomit, summary over all tested microbes and floors", "type": "cell-based", "description": "as §1\n(1) Imitation vomit was spread in an area about the size of an A4 sheet. (2) 5 agent solution-containing treatment sheets were laid thereon. (3) The imitation vomit was wiped off. (4) A cotton swab was soaked with sterile saline. A portion where imitation vomit was spread was scrubbed with the cotton swab to collect microbes remaining on the floor. After suspending in saline, the solution was spread on a petri dish and cultured. The number of each of the microbes was measured. […]\n(1) Imitation vomit was spread in an area about the size of an A4 sheet. […] The number of each of the microbes was measured. […]"}, "[3]": {"system": "Staphylococcus aureus IF0 12732", "assay": "Permeability of pathogenic microbes when treatment sheets were laid on vomit", "type": "cell-based", "set-up": "unit not given here", "conditions": "1000 ppm available chlorine", "description": "1) Chlorous acid aqueous solution formulation (see Example 1: Table 11) Treatment sheet (material: 100% cotton): (about 27×40 cm) *Impregnated at a ratio of weight of treatment sheet (g): amount of liquid (ml)=1:3 2) Imitation vomit (hereinafter, referred to as vomit) Miso solution: adjusted to pH 2 with hydrochloric acid 3) Test Microbes that were used E. coli: Escherichia coli IF03927 Staphylococcus aureus: Staphylococcus aureus IF0 12732 Thermoduric Microbes (Bacillus cereus): Bacillus cereus NBRC15305 Microbes of the genus Salmonella: Salmonella Enteritidis IF03313 Enterohemorrhagic Escherichia coli 0157: Escherichia coli 0157 Enterohemorrhagic Escherichia coli 0111: Escherichia coli 0111 Enterohemorrhagic Escherichia coli 026: Escherichia coli O26\nPermeability of pathogenic microbes into a treatment sheet when treating vomit was examined to compare effects of preventing secondary contamination. (1) Imitation vomit is spread in an area about the size of an A4 sheet. (2) 30 agent solution-containing treatment sheets were laid thereon and left standing for 10 minutes. (3) Treatment sheets were removed one at a time from the top. After diluting with saline, the sample was spread in a petri dish and cultured."}}, "data": [{"smiles": "OCl", "note": "[Sodium Hypochlorite, sodium hypochlorite]", "values": [{"measurement": "residual concentration of ammonium, after correction (Control = 100)", "setting": "[1]; 0 h after spraying", "value": 9}, {"measurement": "residual concentration of ammonium, before correction", "setting": "[1]; 0 h after spraying", "value": 30, "unit": "ppm"}, {"measurement": "residual concentration of ammonium, after correction (Control = 100)", "setting": "[1]; 3 h after spraying", "value": 17}, {"measurement": "residual concentration of ammonium, before correction", "setting": "[1]; 3 h after spraying", "value": 50, "unit": "ppm"}, {"measurement": "residual concentration of ammonium, after correction (Control = 100)", "setting": "[1]; 6 h after spraying", "value": 21}, {"measurement": "residual concentration of ammonium, before correction", "setting": "[1]; 6 h after spraying", "value": 50, "unit": "ppm"}, {"measurement": "residual concentration of ammonium, after correction (Control = 100)", "setting": "[1]; 9 h after spraying", "value": 23}, {"measurement": "residual concentration of ammonium, before correction", "setting": "[1]; 9 h after spraying", "value": 40, "unit": "ppm"}, {"measurement": "residual concentration of ammonium, after correction (Control = 100)", "setting": "[1]; 24 h after spraying", "value": 28}, {"measurement": "residual concentration of ammonium, before correction", "setting": "[1]; 24 h after spraying", "value": 40, "unit": "ppm"}, {"measurement": "residual concentration of ammonium, after correction (Control = 100)", "setting": "[1]; before spraying", "value": 100}, {"measurement": "residual concentration of ammonium, before correction", "setting": "[1]; before spraying", "value": 320, "unit": "ppm"}, {"measurement": "Number of Times Wiped 1 Time (remaining microbes)", "setting": "[2]", "value": "<10"}, {"measurement": "Number of Times Wiped 2 Times (remaining microbes)", "setting": "[2]", "value": "<10"}, {"measurement": "Number of Times Wiped 3 Times (remaining microbes)", "setting": "[2]", "value": "<10"}, {"measurement": "sterilization of pathogenic microbes on floor surface by wiping", "setting": "pathogenic microbes; day 0", "value": "could be sterilized"}, {"measurement": "sterilization of pathogenic microbes on floor surface by wiping", "setting": "pathogenic microbes; preserved for 7 days", "value": "there were cases in which pathogenic microbes could not be sterilized"}, {"measurement": "microbes in treatment sheet laid on imitation vomit", "setting": "[3]; 1 sheet, Day 0 at 25° C.", "value": "<10"}, {"measurement": "microbes in treatment sheet laid on imitation vomit", "setting": "[3]; 1 sheet, Day 7 at 25° C.", "value": ">10^6"}, {"measurement": "microbes in treatment sheet laid on imitation vomit", "setting": "[3]; 2 sheets, Day 0 at 25° C.", "value": "<10"}, {"measurement": "microbes in treatment sheet laid on imitation vomit", "setting": "[3]; 2 sheets, Day 7 at 25° C.", "value": ">10^6"}, {"measurement": "microbes in treatment sheet laid on imitation vomit", "setting": "[3]; 3 sheets, Day 0 at 25° C.", "value": "<10"}, {"measurement": "microbes in treatment sheet laid on imitation vomit", "setting": "[3]; 3 sheets, Day 7 at 25° C.", "value": ">10^6"}, {"measurement": "microbes in treatment sheet laid on imitation vomit", "setting": "[3]; 4 sheets, Day 0 at 25° C.", "value": "<10"}, {"measurement": "microbes in treatment sheet laid on imitation vomit", "setting": "[3]; 4 sheets, Day 7 at 25° C.", "value": ">10^6"}, {"measurement": "microbes in treatment sheet laid on imitation vomit", "setting": "[3]; 5 sheets, Day 0 at 25° C.", "value": "<10"}, {"measurement": "microbes in treatment sheet laid on imitation vomit", "setting": "[3]; 5 sheets, Day 7 at 25° C.", "value": ">10^6"}, {"measurement": "microbes in treatment sheet laid on imitation vomit", "setting": "[3]; 6 sheets, Day 0 at 25° C.", "value": "<10"}, {"measurement": "microbes in treatment sheet laid on imitation vomit", "setting": "[3]; 6 sheets, Day 7 at 25° C.", "value": ">10^6"}, {"measurement": "microbes in treatment sheet laid on imitation vomit", "setting": "[3]; 8 sheets, Day 0 at 25° C.", "value": "<10"}, {"measurement": "microbes in treatment sheet laid on imitation vomit", "setting": "[3]; 8 sheets, Day 7 at 25° C.", "value": "1.1 × 10^4"}, {"measurement": "microbes in treatment sheet laid on imitation vomit", "setting": "[3]; 10 sheets, Day 0 at 25° C.", "value": "<10"}, {"measurement": "microbes in treatment sheet laid on imitation vomit", "setting": "[3]; 10 sheets, Day 7 at 25° C.", "value": "7.1 × 10^2"}, {"measurement": "microbes in treatment sheet laid on imitation vomit", "setting": "[3]; 20 sheets, Day 0 at 25° C.", "value": "<10"}, {"measurement": "microbes in treatment sheet laid on imitation vomit", "setting": "[3]; 20 sheets, Day 7 at 25° C.", "value": "<10"}, {"measurement": "microbes in treatment sheet laid on imitation vomit", "setting": "[3]; 30 sheets, Day 0 at 25° C.", "value": "<10"}, {"measurement": "microbes in treatment sheet laid on imitation vomit", "setting": "[3]; 30 sheets, Day 7 at 25° C.", "value": "<10"}]}]}
